Test results taken from US6593358B1, “Thienyl-pyrazoles and their use for controlling pests” (Nihon Bayer Agrochem K.K., priority 1999, dated 2003).

How the values were obtained:
Meloidogyne incognita = assay: Test against Meloidogyne spp. (soil pot test); assay type: in vivo; details: soil contaminated with Meloidogyne incognita, final concentration 50 ppm; tomato (Kurihara) in pots, greenhouse 4 weeks; from root knot index
Method: Test Against Meloidogyne spp. (Soil Pot Test)
Preparation of Test Agent:
1 Part of the active compound is impregnated to 99 parts of pumice to obtain fine granules.
The active compound prepared as mentioned above is added to soil contaminated with Meloidogyne incognita to a final concentration of 50 ppm and then homogeneously mixed by stirring. Then a pot (1/5000 are) was filled with the soil. About 20 seeds of tomato (variety: Kurihara) were sown per pot. After cultivation in a greenhouse for 4 weeks, they were carefully pulled out not to damage the root and the root knot index and the controlling effect of the compound tested were determined as follows:
Degree of damage 0: No knot was formed (Complete control).
1: A few knots were formed.
2: Knots were formed to a medium extent.
3: Knots were formed to an intense extent.
4: Knots were formed to the most intense extent (which corresponds to non-treatment).
Based on the degree of damage acording to the aforementioned standard (0-4), the root knot index can be determined as follows (Equation 1) [formula]
The controlling effect which can be achieved by applying compounds according to the present invention can then be determined as follows (Equation 2): [formula]
The evaluation of the controlling effect towards nematodes is then done by connecting the values of the controlling effect with the following standards (a-d): […]

| SMILES | melting point [°C] | Evaluation of controlling effect (Meloidogyne incognita) |
| --- | --- | --- |
| CCCCCCc1cc(-c2cccs2)n[nH]1 | 53 to 55 |  |
| ClCCOc1cc(-c2cccs2)n[nH]1 | 134 to 138 |  |
| Cc1cc(-c2cccs2)n[nH]1 | 133 to 135 |  |
| Oc1cc(-c2cccs2)n[nH]1 | 144 to 146 |  |
| CCCCc1cc(-c2cccs2)n[nH]1 [Compound 82, 3-(2-thienyl)-5-n-butylpyrazole] | 47 to 48 | a (Controlling effect 100-71%) |
| CCCCCc1cc(-c2cccs2)n[nH]1 [Compound 83, 3-(2-thienyl)-5-n-pentylpyrazole] | 68 to 73 | a (Controlling effect 100-71%) |
